Test results taken from patent US20220354870A1, “READY-TO-USE BUPIVISONE PLUS LIQUID FORMULATION” (LEITERS, Inc., priority 2021, published 2022).
“Also recorded” adds a separate entry of the source. Counter-ions that a name gives are not always drawn.

How the values were obtained:
Assay type in all cases: physicochemical
[1] = Stability testing of syringed formulation with methylparaban (Example 2); details: stability study
Method: (§1) The samples were produced using an approved batch record and shipped to contract laboratories for stability testing. The samples were stored according to ICH Q1A (R2) as follows: • Long term: Refrigerated (5° C. ±3° C.) in Horizontal Orientation, Protected from Light • Accelerated Condition: Room Temperature (25° C. ±2° C. and 40% RH ±5% RH) Horizontal Orientation, Protected from Light
(§2) The method development procedure for the strength and potency aligned with the defined criteria in USP <1225> for a stability indicating method. The procedures used for microbiology testing were based on method suitability performed at T0.

[2] = Stability testing of syringed formulation prepared without preservative (Example 3); details: stability study
Method: The formulations without a preservative were prepared following the method described in Example 1 except no preservative(s) was used.
as §1, §2

[3] = Potency after room temperature storage of syringe in nitrogen-flushed hermetically sealed pouch (Example 4); details: formulation of Table 4 (no preservative) in syringe, hermetically sealed pouch flushed with nitrogen
Method: A preliminary evaluation of the feasibility of packaging syringes was performed. Hermetically sealed pouch containing a syringe with the exemplary formulation from Table 4 was flushed with nitrogen to reduce oxygen levels.

| Impurities of the active versus FDA/ICH guidelines ([1]; hydrochloride) | Impurities of the active versus FDA/ICH guidelines ([1]; listed as Bupivicaine, hydrochloride) | SMILES | Impurities of the active versus FDA/ICH guidelines [1] | Impurities of the active versus limits of ICH guidelines, FDA and in-house SOP [2] | Potency (% label claim) after storage at room temperature for 90 days [3] [%] |
| --- | --- | --- | --- | --- | --- |
| – | – | CNC[C@H](O)c1ccc(O)c(O)c1 [Epinephrine, epinephrine] | met FDA/ICH Guidelines; also recorded: met the acceptable limits | met the acceptable limits | 104.2 |
| met FDA/ICH Guidelines | met the acceptable limits | CCCCN1CCCCC1C(=O)Nc1c(C)cccc1C (stereo not shown) [Bupivacaine HCl, bupivacaine hydrochloride] | – | met the acceptable limits | 97.2 |
